Here are results for 22 molecules from patent US5620675A, “Radioactive peptides” (Diatech, Inc., priority 1993, dated 1997).

Starred links: 1 amine or outer side, 2 acyl side, 3 side chain; linkers in the order of their positions; H or OH if unused. Non-standard residues stand in square brackets, D forms with d. Residues, ends and D or L forms follow the SMILES beside them. *: point of attachment. DTPA = O=C(O)CN(CCN(CC(=O)O)CC(=O)O)CCN(CC(=O)O)CC(=O)*; Phe(4-Cl) = N[C@@H](Cc1ccc(Cl)cc1)C(=O)O; X4 = CC(C)(S)CNCCN(CCCCC(=O)*)CC(C)(C)S; 2Nal = N[C@@H](Cc1ccc2ccccc2c1)C(=O)O; d2Nal = N[C@H](Cc1ccc2ccccc2c1)C(=O)O; εLys = N[C@@H](CCCCN[*:1])C(=O)[*:2]; Acm = CC(=O)NC*

The target of this experiment is T1, somatostatin receptor (Rattus norvegicus, UniProt P30680).
T1 construct: endogenous in cells; host or cells: AR42J rat pancreatic tumor cell line (membrane preparation)
The experiment in a line: Inhibition of binding of [125I-Tyr11]somatostatin-14 to AR42J rat pancreatic tumor cell membranes. As to conditions: inhibition constant; displacement of 0.5 nM [125I-Tyr11]somatostatin-14 from AR42J cell membranes, 25 min at 30° C; free peptides and [Re=O]-complexed peptides. The procedure: Inhibition of Binding of [^125 I-Tyr^11 ]somatostatin-14 to AR42J Rat Pancreatic Tumor Cell Membranes
The rat pancreatic tumor cell line AR42J which expresses the somatostatin receptor was cultured in Dulbecco's minimal essential media (DMEM) supplemented with 10% fetal bovine serum (FBS) and 8 mM glutamine in a humdified 5% CO2 atmosphere at 37° C. in T-flasks. Harvested cells were homogenized in cold 50 mM Tris-HCl buffer (pH 7.4) and the homogenate then centrifuged at 39,000 g for 10 min at 4° C. Pellets were washed once with buffer and then resuspended in an ice-cold solution of 10 mM Tris-HCl (pH 7.4). Equal aliquots of this cell membrane preparation were incubated with [^125 I-Tyr^11 ]somatostatin-14 (at a final concentration of 0.5nM and 750,000 cpm/mL, at a specific activity of 2000 Ci/mmol, Amersham, Arlington Heights, Ill.) and peptide at a final concentration of from 10^-11 M to 10^-6 M in a solution of 50 mM HEPES (pH 7.4) containing 1% bovine serum albumin (BSA), 5 mM MgCl2, Trasylol (200,000 International Units), bacitracin (0.02 mg/mL) and phenylmethylsulfonylfluoride (0.02 mg/mL) for 25 min at 30° C. Using a filtration manifold, this mixture was filtered through a polyethyleneimine-washed GC/F filter (Whatman, Maidstone, England), and the residue remaining on the filter wastled thrice with 5 mL cold HEPES buffer. The filter and a sample of the filter washings were then counted in a gamma counter. To assess non-specific binding, the assay was performed in the presence of unlabeled somatostatin-14 at 200 nM. Data analysis including Hill plots of the data provided inhibition constants (see Bylund & Yamamura, "Methods of receptor binding", in Methods in Neurotransmitter Receptor Analysis, Yamamura et al., eds., Raven Press: New York, 1990).

T1 sequence (P30680 whole entry): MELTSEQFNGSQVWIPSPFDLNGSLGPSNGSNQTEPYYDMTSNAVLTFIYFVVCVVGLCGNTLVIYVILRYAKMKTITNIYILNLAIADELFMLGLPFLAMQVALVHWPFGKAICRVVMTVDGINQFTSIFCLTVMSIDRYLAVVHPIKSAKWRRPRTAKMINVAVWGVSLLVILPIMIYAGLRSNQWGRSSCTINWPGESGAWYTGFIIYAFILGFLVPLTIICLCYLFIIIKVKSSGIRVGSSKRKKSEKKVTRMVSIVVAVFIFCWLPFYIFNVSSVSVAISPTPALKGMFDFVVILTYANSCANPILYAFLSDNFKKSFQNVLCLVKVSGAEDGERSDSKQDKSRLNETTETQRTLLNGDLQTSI

By Ki is commonly meant the equilibrium dissociation constant of an inhibitor or competing ligand from its target. Regarding `CC(=O)NCSC[C@H](NC(C)=O)C(=O)NCC(=O)N[C@@H](CSCNC(C)=O)C(=O)N[C@H](Cc1ccccc1)C(=O)N[C@@H](Cc1ccc(Cl)cc1)C(=O)N[C@@H](Cc1ccc(O)cc1)C(=O)N[C@H](Cc1c[nH]c2ccccc12)C(=O)N[C@@H](CCCCN)C(=O)N[C@H](C(=O)N[C@@H](Cc1ccccc1)C(=O)N[C@H](C(N)=O)[C@@H](C)O)[C@@H](C)O` [Ac.CAcm GCAcm FD.CPa.YWD KTFT.amide, Ac.CAcm GCAcm FD.Cpa.YWD KTFT.amide] (Ac-C(Acm)GC(Acm)[dF][Phe(4-Cl)]Y[dW]KTFT-NH2), the Ki came out at 0.73 nM.

As to `CC(=O)N[C@@H](CS)C(=O)NCC(=O)N[C@@H](CS)C(=O)N[C@H](Cc1ccccc1)C(=O)N[C@@H](Cc1ccc(Cl)cc1)C(=O)N[C@@H](Cc1ccc(O)cc1)C(=O)N[C@H](Cc1c[nH]c2ccccc12)C(=O)N[C@@H](CCCCN)C(=O)N[C@H](C(=O)N[C@@H](Cc1ccccc1)C(=O)N[C@H](C(N)=O)[C@@H](C)O)[C@@H](C)O` [Ac.CGCFD.Cpa.YWD KTFT.amide] (Ac-CGC[dF][Phe(4-Cl)]Y[dW]KTFT-NH2), the Ki amounted to 4.4 nM.

For `CC(=O)N[C@H](Cc1ccccc1)C(=O)N[C@@H](Cc1ccccc1)C(=O)N[C@@H](Cc1ccc(O)cc1)C(=O)N[C@H](Cc1c[nH]c2ccccc12)C(=O)N[C@@H](CCCCN)C(=O)N[C@H](C(=O)N[C@@H](Cc1ccccc1)C(=O)N[C@H](C(=O)NCC(=O)NCC(=O)NCC(=O)NCCCC[C@H](N)C(=O)NCC(=O)N[C@@H](CS)C(N)=O)[C@@H](C)O)[C@@H](C)O` [Ac.FD FYWD KTFTGGG(ε-K)GC.amide] (Ac-[dF]FY[dW]KTFTGGG[εLys]GC-NH2), the affinity, expressed as Ki, was 8.2 nM.

On to `CC(=O)NCSC[C@H](NC(=O)CNC(=O)[C@H](CSCNC(C)=O)NC(=O)[C@@H](NC(=O)[C@H](Cc1ccccc1)NC(=O)[C@@H](NC(=O)[C@H](CCCCN)NC(=O)[C@@H](Cc1c[nH]c2ccccc12)NC(=O)[C@H](Cc1ccc(O)cc1)NC(=O)[C@H](Cc1ccc(Cl)cc1)NC(=O)[C@H](N)Cc1ccccc1)[C@@H](C)O)[C@@H](C)O)C(N)=O` [FD.CPa.YWD KTFTCAcm GCAcm.amide, FD.Cpa.YWD KTFTCAcm GCAcm.amide] (H-[dF][Phe(4-Cl)]Y[dW]KTFTC(Acm)GC(Acm)-NH2), for which the Ki turned out to be 0.85 nM.

The molecule `C[C@@H](O)[C@H](NC(=O)[C@H](CCCCN)NC(=O)[C@@H](Cc1c[nH]c2ccccc12)NC(=O)[C@H](Cc1ccc(O)cc1)NC(=O)[C@H](Cc1ccc(Cl)cc1)NC(=O)[C@H](N)Cc1ccccc1)C(=O)N[C@@H](CS)C(=O)N[C@@H](Cc1ccc2ccccc2c1)C(N)=O` [FD.Cpa.YWD KTC.Nal.amide] (H-[dF][Phe(4-Cl)]Y[dW]KTC[2Nal]-NH2) came in with a Ki of 8.2 nM.

Take `CC(=O)NCSC[C@H](NC(=O)CNC(=O)[C@H](CSCNC(C)=O)NC(=O)CNC(=O)CNC(=O)CNC(=O)[C@@H](NC(=O)[C@H](Cc1ccccc1)NC(=O)[C@@H](NC(=O)[C@H](CCCCN)NC(=O)[C@@H](Cc1c[nH]c2ccccc12)NC(=O)[C@H](Cc1ccc(O)cc1)NC(=O)[C@H](Cc1ccc(Cl)cc1)NC(=O)[C@H](N)Cc1ccccc1)[C@@H](C)O)[C@@H](C)O)C(N)=O` [FD.Cpa.YWD KTFT.GGGCAcm GCAcm.amide] (H-[dF][Phe(4-Cl)]Y[dW]KTFTGGGC(Acm)GC(Acm)-NH2): the Ki was determined as 2.4 nM.

In the case of `CSC[C@H](NC(=O)[C@@H](NC(=O)[C@H](CCCCN)NC(=O)[C@@H](Cc1c[nH]c2ccccc12)NC(=O)[C@H](Cc1ccc(O)cc1)NC(=O)[C@H](CSC)NC(=O)[C@@H](Cc1ccc2ccccc2c1)NC(=O)[C@@H](N)CCCCNC(=O)CCCCN(CCNCC(C)(C)S)CC(C)(C)S)C(C)C)C(=O)N[C@H](C(N)=O)[C@@H](C)O` [K.[BAT].D-Nal.CMe YWD KVCMe T.amide, K(BAT).D-Nal.CMe YWD KVCMe T.amide] (H-K(X4)[d2Nal]C(Me)Y[dW]KVC(Me)T-NH2; N-terminus assumed), the Ki came to 9.9 nM. Compared with the last molecule, the Ki is about 4.1-fold higher.

With `C[C@@H](O)[C@H](NC(=O)[C@H](Cc1ccccc1)NC(=O)[C@@H](NC(=O)[C@H](CCCCN)NC(=O)[C@@H](Cc1c[nH]c2ccccc12)NC(=O)[C@H](Cc1ccc(O)cc1)NC(=O)[C@H](Cc1ccccc1)NC(=O)[C@@H](Cc1ccccc1)NC(=O)[C@H](CS)NC(=O)CNC(=O)[C@@H](N)CCCCNC(=O)CN(CCN(CCN(CC(=O)O)CC(=O)O)CC(=O)O)CC(=O)O)[C@@H](C)O)C(N)=O` [[DTPA].(ε-K)GCFD.FYWD KTFT.amide] (H-K(DTPA)GC[dF]FY[dW]KTFT-NH2), affinity was put at a Ki of 3.3 nM. Compared with the last molecule, the Ki is about 3-fold lower.

Molecule `C[C@@H](O)[C@H](NC(=O)[C@H](Cc1ccccc1)NC(=O)[C@@H](NC(=O)[C@H](CCCCN)NC(=O)[C@@H](Cc1c[nH]c2ccccc12)NC(=O)[C@H](Cc1ccc(O)cc1)NC(=O)[C@H](Cc1ccc(Cl)cc1)NC(=O)[C@@H](Cc1ccc2ccccc2c1)NC(=O)CN(CCN(CCN(CC(=O)O)CC(=O)O)CC(=O)O)CC(=O)O)[C@@H](C)O)C(=O)NCCCC[C@H](N)C(=O)NCC(=O)N[C@@H](CS)C(=O)N[C@@H](CCCCN)C(=O)N[C@@H](CCCCN)C(N)=O` [[DTPA].D-Nal.Cpa.YWD KTFT(ε-K)GCKK.amide] ({DTPA}-[d2Nal][Phe(4-Cl)]Y[dW]KTFT[εLys]GCKK-NH2) showed a Ki of 1.3 nM.

AKCGGGFD FYWD KTFT.amide displayed a Ki of 2.9 nM.

AKCGGGFD.Cpa.YWD KTFT.amide: affinity was put at a Ki of 0.76 nM.

The molecule Ac.CGCFD.Cpa.YWD KTFT.amide returned a Ki of 4.1 nM. Compared with the last molecule, the Ki is about 5.4-fold higher.

As for Ac.FD FYWD KTFGGG(ε-K)KC.amide, the Ki is 6.1 nM. The Ki values of the last two molecules are within 1.5-fold of each other.

With Ac.FD FYWD KTFT(ε-K)GC.amide, the Ki is 1.5 nM.

As to Ac.FD FYWD KTFTGGG(ε-K)GC.amide, the Ki turned out to be 8.1 nM. Compared with the last molecule, the Ki is about 5.4-fold higher.

Regarding “FD.CPa.YWD KTFTCGC.amide (not fully specified; Re=O complex; FD.CPa.YWD prefix; C-terminal amide)”, affinity was put at a Ki of 0.37 nM.

On to FD.Cpa.YWD K.Abu.Nal.T(ε-K)GC.amide, for which the inhibition constant (Ki) is 3.3 nM.

The molecule FD.Cpa.YWD KTFT(ε-K)GC.amide displayed a Ki of 0.36 nM.

[DTPA].Aca.FD.Cpa.YWD KTFT(ε-K)GC.amide yielded a Ki of 8.2 nM. Against the preceding molecule, the Ki is about 23-fold higher.

[DTPA].D-Nal.Cpa.YWD KTFT(ε-K)GC.amide gave a Ki of 0.007 nM.

The molecule [DTPA].FD.Cpa.YWD KTFT(ε-K)GC.amide displayed a Ki of 0.027 nM.

In turn, maGGGFD.Cpa.YWD KTFT.amide had a Ki of 0.97 nM.
